{"source": "patent US10799501B2", "about": "“Combination of an inhibitor of PARP with an inhibitor of GSK-3 or DOT1L” (King's College London, priority 2015, dated 2020)", "key": {"[1]": {"test_system": "AML1-ETO primary human leukemia cells", "assay": "In vitro treatment of primary AML patient cells carrying AML1-ETO", "type": "cell-based", "method": "NB4-LR2 and THP1 cell lines (kindly provided by Dr Arthur Zelent and Professor Mel Greaves respectively) were cultured in RPMI (Invitrogen) supplemented with 10% selected FBS (R10), 2 mM L-Glutamine. Kasumi cell line (kindly provided by Dr Olaf Heidenreich) was cultured in RPMI-Hepes modified (Sigma) supplemented with 20% selected FBS and 2 mM L-[…]). Cell lines were validated by qPCR for their respective oncogenes. NIH3T3 and GP2 cell line was cultured in DMEM (Invitrogen) supplemented with 10% selected FBS and 2 mM L-Glutamine. Human primary AML cells were cultured in IMEM (Invitrogen) supplemented with […], 2 mM L-Glutamine, 10 ng/mL each of human cytokines, IL3, IL6, SCF, FLT3 ligand, and TPO. Cells were kept at 37° C. and 5% CO2. Use of human primary cells was approved by King's College London committee and consents of the patients were obtained. […] Colonies were scored 6-7 days after plating. […] Cells were counted in at least 5 fields for each slide, for a total of over 100 cells per condition. […] Cells were then washed in PBS and the differentiated cells were indicated by the deposition of dark blue insoluble formazan (NBT positive cells) and the percentage of differentiated cells were counted under microscopy. At least 200 cells were counted in most of the cases."}, "[2]": {"test_system": "breast, prostate and ovarian cancer with BRCA1 or BRCA2 mutations", "settings": "patients carrying mutations in BRCA1 or BRCA2; cited from earlier work"}, "[3]": {"test_system": "AML1-ETO transformed cells", "assay": "In vitro drug treatment of primary murine hematopoietic cells transformed by AML1-ETO (RTTA)", "type": "cell-based, mouse", "method": "Transduction using concentrated viral supernatant expressing the oncogene of interest was carried out by centrifugation (spinoculation) at 800 g at 32° C. for 2 hours in the presence of 5 μg ml^-1 polybrene (Sigma-Aldrich). Cells were subsequently plated in 1% methylcellulose medium ([…]; Stem Cell Technologies) containing 20 ngml^-1 SCF, 10 ngml^-1 IL-3, 10 ngml^-1 IL-6 and 10 ngml^-1 granulocyte macrophage colony-stimulating factor (GM-CSF) and appropriate selection antibiotic. Colonies were counted after 7 days of culture and replated every 6-7 days at 5×103-1.5×10^4 cell density. Re-plating was performed weekly to generate primary cell lines for further analysis. After the third or fourth round of plating, cells were cultured in R20/20 medium (RPMI 1640, 20% FCS, 20% WEHI-conditioned medium, 2 mM L-glutamine, 100 U/ml penicillin, and 100 μg/ml streptomycin) supplemented with 20 ngml^-1 stem cell factor (SCF), 10 ngml^-1 interleukin (IL)-3, and 10 ngml^-1 IL-6 to establish cell lines. All recombinant murine cytokines were from PeprotechEC. […] Colonies were scored 6-7 days after plating. For other in vitro studies, mouse leukemic cells and primary AML cell lines were subjected to continuously Olaparib (1 μM) or LiCl (8 mM) treatment in liquid culture for whole duration as indicated in the figures or figure legends. For human leukemic cell lines, experiments were performed as described above with 5 μM Olaparib. Cells were cytospun onto a glass slide at 400 g for 5 minutes and then fixed for 10 minutes with 2% formaldehyde/0.2% glutaraldehyde (Sigma Aldrich). Cells were then washed with PBS, and then incubated at 37° C. for at least 2 hours with a staining solution (30 mM Citric Acid/Phosphate buffer, 5 mM K4Fe(CN)6, 5 mM K3Fe(CN)6, 150 mM NaCl, 2 mM MgCl2, 1 mg/ml X-Gal) (All reagents from Sigma-Aldrich)62. Cells were counted in at least 5 fields for each slide, for a total of over 100 cells. The percentage of senescent cells was calculated by the percentage of the number of blue cell in the field. Cells were cytospun onto a glass slide at 400 g for 5 minutes and then fixed for 30 minutes in 4% PFA and permeabilized and blocked in 0.8% Tx-100, 10% FBS/1% BSA (Sigma-Aldrich) in PBS for 15 min at room temperature. Mouse anti mouse γH2AX ([…]) (Upstate clone JBW301#05-636) and rabbit anti mouse RAD51 (Santa Cruz Biotecnology […]# sc-8349) were diluted in TBS containing 10% FBS/1% BSA and incubated overnight at 4C. […] Slides were then washed five times at 10 min each with PBS. Slides were briefly washed in water and air-dried prior to mounting with Mowiol-DABCO and a coverslip. Cells were counted in at least 5 fields for each slide, for a total of over 100 cells per condition. 1×10^5 cells were cytospun for 5 min at 300 g onto glass slides. Slides were then stained with May-Grunwald solution (Sigma-Aldrich) for 3 min at room temperature. After washing in water, they were incubated for 20 min in Giemsa solution (Sigma-Aldrich) (1:20 in water). Slides were washed again in water before being mounted with Mowiol. Cells were counted in at least 5 fields for each slide, for a total of over 100 cells per condition. NBT reduction assay were performed to determine myeloid differentiation. […] Cells were then washed in PBS and the differentiated cells were indicated by the deposition of dark blue insoluble formazan (NBT positive cells) and the percentage of differentiated cells were counted under microscopy. At least 200 cells were counted in most of the cases."}}, "data": [{"smiles": "O=C(c1cc(Cc2n[nH]c(=O)c3ccccc23)ccc1F)N1CCN(C(=O)C2CC2)CC1", "note": "[Olaparib, 4-[(3-[(4-cyclopropylcarbonyl)piperazin-4-yl]carbonyl)-4-fluorophenyl]methyl(2H)-phthalazin-1-one]", "values": [{"measurement": "differentiation of primary AML cells", "setting": "[1]; 1 μM Olaparib for 5 days", "value": "increased differentiation"}, {"measurement": "in vitro PARPi response (sensitivity)", "setting": "[1]; primary patient cells treated 5 days", "value": "highly sensitive"}, {"measurement": "anti-tumour effect", "setting": "[2]", "value": "anti-tumour effect"}, {"measurement": "side effects", "setting": "[2]", "value": "grade 1 or 2"}, {"measurement": "suppression of colony forming ability", "setting": "[3]; 1 uM Olaparib, methylcellulose 7 days, p<0.001", "value": "about 90%"}, {"measurement": "senescence (β-galactosidase staining)", "setting": "[3]; PARPi 24 hrs and 48 hrs", "value": "underwent significant senescence"}, {"measurement": "Rad51 recruitment to DNA damage sites (RAD51 foci)", "setting": "[3]; PARPi treatment for 6 hours", "value": "no significant Rad51 recruitment"}, {"measurement": "percentage of differentiation (morphology and NBT reduction)", "setting": "[3]; time course PARPi treatment", "value": "significantly increased the percentage of differentiation"}, {"measurement": "cells with γH2AX and Rad51 foci ratio greater than 2", "setting": "[3]; upon PARPi treatment", "value": "around 80%"}]}]}
